Tests used:
CB2 receptor (hCB2) = target: T1, CB2 receptor (hCB2) (Homo sapiens, UniProt P34972); experiment: radioligand competition ([3H]CP55940) on HEK293 membranes expressing hCB2; agonist in CRE-Luc assay; format: binding
T1 construct: gene CNR2

PPARγ = target: T2, PPARγ (Homo sapiens, UniProt P37231); experiment: fluorescence polarization competition (PolarScreen PPARγ Competitor Assay); GAL4-PPARγ transactivation; format: binding
T2 construct: gene PPARG
T2 sequence (P37231 1-505): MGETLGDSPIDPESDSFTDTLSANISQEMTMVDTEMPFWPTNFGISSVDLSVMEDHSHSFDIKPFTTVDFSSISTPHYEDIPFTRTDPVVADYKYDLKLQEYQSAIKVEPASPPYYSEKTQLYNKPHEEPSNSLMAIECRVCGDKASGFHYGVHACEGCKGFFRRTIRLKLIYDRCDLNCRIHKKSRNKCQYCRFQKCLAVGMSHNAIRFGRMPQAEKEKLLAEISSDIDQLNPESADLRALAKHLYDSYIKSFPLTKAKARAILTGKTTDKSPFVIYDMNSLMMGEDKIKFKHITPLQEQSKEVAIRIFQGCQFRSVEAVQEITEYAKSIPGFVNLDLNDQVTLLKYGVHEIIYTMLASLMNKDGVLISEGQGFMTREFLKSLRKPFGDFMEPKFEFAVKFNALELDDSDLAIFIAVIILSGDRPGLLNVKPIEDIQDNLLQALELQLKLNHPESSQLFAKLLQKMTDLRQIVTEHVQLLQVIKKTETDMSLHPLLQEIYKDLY

T1 sequence (P34972 whole entry): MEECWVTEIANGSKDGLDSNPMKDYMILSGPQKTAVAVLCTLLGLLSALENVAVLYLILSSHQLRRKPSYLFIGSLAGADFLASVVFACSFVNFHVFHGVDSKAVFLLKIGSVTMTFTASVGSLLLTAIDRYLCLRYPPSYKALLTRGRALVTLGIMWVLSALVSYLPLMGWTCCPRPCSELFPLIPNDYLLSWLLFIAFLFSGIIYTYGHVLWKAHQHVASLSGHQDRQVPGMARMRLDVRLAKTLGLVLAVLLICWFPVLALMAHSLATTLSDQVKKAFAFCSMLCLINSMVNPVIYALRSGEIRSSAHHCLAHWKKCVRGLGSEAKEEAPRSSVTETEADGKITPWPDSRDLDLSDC

SMILES: C=C(C)[C@@H]1CCC(C)=C[C@H]1C1=C(O)C(=O)C(CCCCC)=C(NCc2ccccc2)C1=O [VCE-004.8]
- Ki (CB2 receptor (hCB2)): 170 ± 50 nM
- IC50 (PPARγ): 1700 nM

Source: publication PMC4757881 (Scientific Reports, 2016)
